Reference: the NIST ThermoML archive (doi:10.1016/j.jct.2006.03.021)

Assay: molar heat capacity at constant pressure
Conditions: 101.33 kPa, Crystal, Vacuum adiabatic calorimetry

O.O.OC[C@H]1O[C@H](O[C@H]2O[C@H](CO)[C@@H](O)[C@H](O)[C@H]2O)[C@H](O)[C@@H](O)[C@@H]1O [D-(+)-trehalose dihydrate]
Conditions | molar heat capacity at constant pressure [J/K/mol]
13.55 K | 6.385
14.6 K | 7.838
15 K | 8.51
15.59 K | 9.345
16.61 K | 10.96
17.67 K | 12.73
18.75 K | 14.64
19.81 K | 16.57
20 K | 16.78
20.85 K | 18.51
21.9 K | 20.53
22.93 K | 22.57
23.97 K | 24.62
25.02 K | 26.77
26.11 K | 29
27.24 K | 31.35
28.42 K | 33.79
29.57 K | 36.22
30 K | 37.06
30.71 K | 38.61
31.92 K | 41.15
33.18 K | 43.81
34.5 K | 46.58
35.82 K | 49.36
37.15 K | 52.14
38.46 K | 54.9
39.78 K | 57.62
40 K | 58.13
41.15 K | 60.45
42.54 K | 63.33
43.91 K | 66.14
45.27 K | 68.9
46.63 K | 71.67
48.02 K | 74.49
49.43 K | 77.32
50 K | 78.42
50.88 K | 80.24
52.39 K | 83.22
53.93 K | 86.27
55.51 K | 89.39
56.3 K | 90.95
57.99 K | 94.25
59.66 K | 97.53
60 K | 98.14
61.39 K | 100.85
63.18 K | 104.27
64.99 K | 107.74
66.83 K | 111.22
68.66 K | 114.67
70 K | 117.19
70.49 K | 118.11
72.33 K | 121.52
74.17 K | 124.94
76.04 K | 128.4
77.89 K | 131.81
79.75 K | 135.21
80 K | 135.65
81.63 K | 138.61
83.51 K | 142.01
85.4 K | 145.39
87.31 K | 148.81
89.22 K | 152.17
90 K | 153.54
91.14 K | 155.56
93.09 K | 158.95
95.06 K | 162.41
97.04 K | 165.84
98.99 K | 169.18
100 K | 170.91
100.9 K | 172.45
102.78 K | 175.65
104.63 K | 178.78
106.45 K | 181.89
108.25 K | 184.88
110 K | 187.82
110.03 K | 187.85
111.78 K | 190.76
113.51 K | 193.65
115.22 K | 196.52
116.9 K | 199.3
118.57 K | 202
120 K | 204.35
120.3 K | 204.92
122.1 K | 207.75
123.94 K | 210.99
125.83 K | 213.81
127.75 K | 216.99
129.72 K | 220.18
130 K | 220.6
131.71 K | 223.29
133.7 K | 226.52
135.72 K | 229.81
137.73 K | 232.95
139.73 K | 236.18
140 K | 236.57
141.73 K | 239.27
143.74 K | 242.56
145.72 K | 245.6
147.72 K | 248.78
149.71 K | 251.89
150 K | 252.32
151.71 K | 254.95
153.75 K | 258.14
155.79 K | 261.37
157.84 K | 264.6
159.89 K | 267.82
160 K | 267.93
161.93 K | 270.95
163.96 K | 274.13
165.96 K | 277.24
167.95 K | 280.33
169.92 K | 283.36
170 K | 283.46
171.88 K | 286.43
173.83 K | 289.42
175.76 K | 292.43
177.63 K | 295.3
179.56 K | 298.22
180 K | 299
181.49 K | 301.33
183.41 K | 304.3
185.35 K | 307.28
187.29 K | 310.3
189.22 K | 313.27
190 K | 314.53
191.14 K | 316.25
193.07 K | 319.27
195.02 K | 322.27
196.95 K | 325.32
198.87 K | 328.28
200 K | 330.09
200.8 K | 331.37
202.74 K | 334.35
204.67 K | 337.37
206.6 K | 340.29
208.53 K | 343.33
210 K | 345.69
210.48 K | 346.48
212.42 K | 349.61
214.34 K | 352.52
216.28 K | 355.42
220 K | 361.36
220.18 K | 361.71
222.12 K | 364.67
224.04 K | 367.73
225.95 K | 370.88
227.85 K | 373.65
229.74 K | 376.66
230 K | 377.12
231.62 K | 379.52
233.49 K | 382.68
235.35 K | 385.55
237.2 K | 388.42
239.04 K | 391.36
240 K | 392.98
240.87 K | 394.34
242.69 K | 397.3
244.52 K | 400.18
246.37 K | 403.04
248.24 K | 406.16
250 K | 408.95
250.12 K | 409.17
252 K | 412.27
253.8 K | 415.1
255.61 K | 417.77
257.43 K | 420.98
259.28 K | 423.94
260 K | 425.06
261.14 K | 426.99
263.01 K | 430.01
264.88 K | 433.05
266.76 K | 435.05
268.64 K | 439.07
270 K | 441.31
270.53 K | 442.21
272.4 K | 445.33
274.28 K | 448.34
276.17 K | 451.18
278.06 K | 454.48
279.95 K | 457.55
280 K | 457.7
281.85 K | 460.72
283.75 K | 463.95
285.66 K | 466.99
287.57 K | 470.12
289.49 K | 473.55
290 K | 474.26
291.41 K | 476.85
293.32 K | 479.88
295.23 K | 482.95
297.16 K | 486.02
298.15 K | 487.87
299.07 K | 489.45
300 K | 490.98
300.98 K | 492.63
